Data published in ChEMBL document CHEMBL5241114, “A comprehensive review of BET-targeting PROTACs for cancer therapy” (Bioorg Med Chem, 2022).
pEC50, pIC50: −log10 of the molar value.

What was measured:
[1] = molecular target: T1, Bromodomain-containing protein 4 (Homo sapiens, UniProt O60885); experiment: Induction of BRD4 degradation in human HEK293T cells; assay type: cell-based
[2] = molecular target: T1, Bromodomain-containing protein 4; experiment: Induction of BRD4 degradation in human HEK293T cells at 10 uM measured at 6 hrs relative to control; assay type: cell-based
MV4-11 [3] = experiment: Antiproliferative activity against human MV4-11 cells assessed as cell growth inhibition measured after […] by Cell Titre Glo Luminescent assay; assay type: functional, cell-based
EOL1 = experiment: Antiproliferative activity against human EOL1 cells assessed as inhibition of cell growth; assay type: functional, cell-based
HL-60 = experiment: Antiproliferative activity against human HL-60 cells assessed as inhibition of cell growth; assay type: functional, cell-based
Caspase-3/Caspase-7 = molecular target: T2, Caspase-3/Caspase-7 (Homo sapiens, UniProt P42574+P55210); experiment: Activation of caspase 3/7 in human 22Rv1 cells by Caspase-Glo reagent based analysis; assay type: cell-based
T2 sequence (P42574 whole entry): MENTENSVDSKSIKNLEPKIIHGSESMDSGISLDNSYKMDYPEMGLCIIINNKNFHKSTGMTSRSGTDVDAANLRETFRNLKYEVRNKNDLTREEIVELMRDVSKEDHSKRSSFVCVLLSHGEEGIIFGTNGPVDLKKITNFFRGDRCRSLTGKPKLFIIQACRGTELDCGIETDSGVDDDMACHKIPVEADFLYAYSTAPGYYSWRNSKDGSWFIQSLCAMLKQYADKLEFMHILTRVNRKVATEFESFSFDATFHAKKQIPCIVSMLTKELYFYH
T2 sequence (P55210 whole entry): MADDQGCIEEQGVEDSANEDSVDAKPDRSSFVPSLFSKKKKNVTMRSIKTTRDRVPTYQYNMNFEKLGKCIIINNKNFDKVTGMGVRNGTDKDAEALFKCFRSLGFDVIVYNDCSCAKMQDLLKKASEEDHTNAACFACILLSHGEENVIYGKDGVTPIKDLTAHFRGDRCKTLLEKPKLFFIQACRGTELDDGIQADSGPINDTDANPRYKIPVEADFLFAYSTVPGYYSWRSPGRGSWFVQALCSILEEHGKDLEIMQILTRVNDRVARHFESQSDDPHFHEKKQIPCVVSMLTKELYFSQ

[4] = molecular target: T1, Bromodomain-containing protein 4; experiment: Induction of BRD4 degradation in human HEK293T cells at 20 uM relative to control; assay type: cell-based
BXPC-3 = experiment: Antiproliferative activity against human BXPC-3 cells assessed as inhibition of cell growth incubated for 72 hrs by MTT assay; assay type: functional, cell-based; conditions: BXPC-3, 72 h
[5] = molecular target: T1, Bromodomain-containing protein 4; experiment: Induction of BRD4 degradation in human 231MFP cells at 10 uM incubated for 60 mins by Western blot analysis relative to control; assay type: cell-based
[6] = molecular target: T1, Bromodomain-containing protein 4; experiment: Binding affinity to BRD4 bromodomain 1 in human Ramos cells; assay type: cell-based
[7] = Antiproliferative activity against human Burkitts lymphoma cells; assay type: functional; conditions: Burkitts lymphoma cell
NAMALVA = experiment: Antiproliferative activity against human NAMALVA cells; assay type: functional
RS4-11 [8] = experiment: Antiproliferative activity against human RS4-11 cells assessed as reduction in cell viability incubated for 72 hrs under light irradiation; assay type: functional, cell-based; conditions: RS4-11, light or radiation study
RS4-11 [9] = experiment: Antiproliferative activity against human RS4-11 cells assessed as reduction in cell viability incubated for 72 hrs under dark condition; assay type: functional, cell-based; conditions: RS4-11, 72 h
SUD4 = experiment: Antiproliferative activity against human SU-DHL-4 cells assessed as reduction in cell viability measured after 48 hrs by MTT assay; assay type: functional
[10] = molecular target: T1, Bromodomain-containing protein 4; experiment: Induction of BRD4 degradation in human 231MFP cells; assay type: cell-based
[11] = molecular target: T3, Bromodomain-containing protein 2 (Homo sapiens, UniProt P25440); experiment: Induction of BRD2 degradation in human 22Rv cells incubated for 16 hrs by Western blot analysis; assay type: cell-based; conditions: 22rv1
[12] = molecular target: T3, Bromodomain-containing protein 2; experiment: Induction of BRD2 degradation in human VCaP cells incubated for 16 hrs by Western blot analysis; assay type: cell-based
[13] = molecular target: T3, Bromodomain-containing protein 2; experiment: Induction of BRD2 degradation in human LNCaP-95 cells incubated for 16 hrs by Western blot analysis; assay type: cell-based
[14] = molecular target: von Hippel-Lindau disease tumor suppressor/Bromodomain-containing protein 2 (Homo sapiens, UniProt P25440+P40337); experiment: Protac activity at BRD2/VHL-bound E3 ligase in human 22Rv1 cells assessed as reduction c-Myc level incubated for 24 hrs by Western blot analysis; assay type: cell-based
MDA-MB-468 [15] = experiment: Antiproliferative activity against human MDA-MB-468 cells; assay type: functional, cell-based
MDA-MB-468 [16] = experiment: Antitumor activity against human MDA-MB-468 cells xenografted in mouse assessed as tumor growth inhibition at 5 mg/kg, iv; assay type: functional; conditions: read-out: TGI
[17] = molecular target: T1, Bromodomain-containing protein 4; experiment: Induction of BRD4 (unknown origin) degradation at 1 uM relative to control
[18] = molecular target: T1, Bromodomain-containing protein 4; experiment: Induction of degradation of BRD4 (unknown origin)
[19] = molecular target: T1, Bromodomain-containing protein 4; experiment: Induction of BRD4 degradation in human HD-MB03 cells measured after 12 hrs; assay type: cell-based
[20] = molecular target: T1, Bromodomain-containing protein 4; experiment: Induction of BRD4 degradation in human HD-MB03 cells at 100 nM measured at 12 hrs relative to control; assay type: cell-based
MV4-11 [21] = experiment: Cytotoxicity against human MV4-11 cells; assay type: functional, cell-based
MV4-11 [22] = experiment: Cytotoxicity against human MV4-11 cells measured after 96 hrs; assay type: functional, cell-based; conditions: MV4-11, 96 h
[23] = molecular target: T1, Bromodomain-containing protein 4; experiment: Induction of BRD4 degradation in human EOL1 cells relative to control; assay type: cell-based
[24] = molecular target: T1, Bromodomain-containing protein 4; experiment: Induction of BRD4 degradation in human EOL1 cells; assay type: cell-based
MM1.S = experiment: Antiproliferative activity against human MM1.S cells assessed as inhibition of cell growth; assay type: functional, cell-based
MV4-11 [25] = experiment: Antiproliferative activity against human MV4-11 cells assessed as inhibition of cell growth; assay type: functional, cell-based
MDA-MB-468 [26] = experiment: Antiproliferative activity against human MDA-MB-468 cells assessed as inhibition of cell growth; assay type: functional, cell-based
[27] = Half life of the compound in DMSO; assay type: physicochemical
[28] = molecular target: T1, Bromodomain-containing protein 4; experiment: Induction of BRD4 degradation in human HeLa cells incubated for 24 hrs by Western blot analysis; assay type: cell-based
CWR22R = experiment: Antitumor activity against human 22Rv1 cells xenografted in Nu/Nu mouse assessed as tumor growth inhibition at 30 mg/kg, sc; assay type: functional; conditions: read-out: TGI

T3 sequence (P25440 whole entry): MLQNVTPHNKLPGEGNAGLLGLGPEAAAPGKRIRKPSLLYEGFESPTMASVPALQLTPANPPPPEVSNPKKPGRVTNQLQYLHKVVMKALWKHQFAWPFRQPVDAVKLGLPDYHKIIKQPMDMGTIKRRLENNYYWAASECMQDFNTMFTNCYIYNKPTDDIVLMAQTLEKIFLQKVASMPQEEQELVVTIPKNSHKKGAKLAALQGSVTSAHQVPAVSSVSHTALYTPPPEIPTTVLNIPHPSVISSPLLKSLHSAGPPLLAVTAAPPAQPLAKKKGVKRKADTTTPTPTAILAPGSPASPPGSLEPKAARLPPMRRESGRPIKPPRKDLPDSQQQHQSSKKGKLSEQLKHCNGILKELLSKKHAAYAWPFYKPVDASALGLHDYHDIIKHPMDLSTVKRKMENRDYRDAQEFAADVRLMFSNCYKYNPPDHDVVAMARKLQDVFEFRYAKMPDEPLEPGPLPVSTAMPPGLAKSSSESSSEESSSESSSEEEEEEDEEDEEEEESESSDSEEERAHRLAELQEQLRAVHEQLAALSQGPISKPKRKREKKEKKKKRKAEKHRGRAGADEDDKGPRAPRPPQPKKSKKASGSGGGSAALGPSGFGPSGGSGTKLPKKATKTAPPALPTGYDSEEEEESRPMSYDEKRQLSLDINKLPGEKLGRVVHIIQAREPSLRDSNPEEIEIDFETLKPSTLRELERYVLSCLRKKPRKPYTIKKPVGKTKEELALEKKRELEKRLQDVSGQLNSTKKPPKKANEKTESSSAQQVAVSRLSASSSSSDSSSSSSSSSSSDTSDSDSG
Chain of von Hippel-Lindau disease tumor suppressor/Bromodomain-containing protein 2 (P25440 whole entry): as above
Chain of von Hippel-Lindau disease tumor suppressor/Bromodomain-containing protein 2 (P40337 whole entry): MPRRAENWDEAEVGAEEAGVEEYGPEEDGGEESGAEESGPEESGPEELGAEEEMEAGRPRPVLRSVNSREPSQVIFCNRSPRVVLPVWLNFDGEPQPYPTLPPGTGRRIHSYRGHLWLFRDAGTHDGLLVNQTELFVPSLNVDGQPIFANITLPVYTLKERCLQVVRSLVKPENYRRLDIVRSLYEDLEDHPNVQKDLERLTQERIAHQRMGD

## Cc1sc2c(c1C)C(c1ccc(Cl)cc1)=N[C@@H](CC(=O)NCCCNC(=O)CN1CCOc3cc(N(CCC#N)C(=O)CCl)ccc31)c1nnc(C)n1-2
[1]
  DC50: 810 nM
[2]
  Emax: 71%

## Cc1ncsc1-c1ccc(CNC(=O)[C@@H]2C[C@@H](O)CN2C(=O)[C@@H](NC(=O)COCCOCCOCCNC(=O)C[C@@H]2N=C(c3ccc(Cl)cc3)c3c(sc(C)c3C)-n3c(C)nnc32)C(C)(C)C)cc1
MV4-11 [3]
  pEC50: 7.30
EOL1
  pIC50: 8.82
HL-60
  pIC50: 8.82
Caspase-3/Caspase-7
  EC50: 150 nM

## Cc1sc2c(c1C)C(c1ccc(Cl)cc1)=N[C@@H](CC(=O)NCCOCCNC(=O)CN1CCOc3cc(N(CCC#N)C(=O)CCl)ccc31)c1nnc(C)n1-2
[1]
  DC50: 820 nM
[2]
  Emax: 81%

## O=C(CCl)N1CCCc2cc(O)ccc21
[4]
  Activity: 35%

## CCS(=O)(=O)Nc1ccc(Oc2ccc(F)cc2F)c(-c2cn(C)c(=O)c3[nH]c(C(=O)NCc4cn(CCOCC(=O)Nc5cccc6c5CN(C5CCC(=O)NC5=O)C6=O)nn4)cc23)c1 (stereo unspecified)
BXPC-3
  pIC50: 6.77

## Cc1sc2c(c1C)C(c1ccc(Cl)cc1)=N[C@@H](CC(=O)NCCOCCOCCOCCN1CCOc3cc(N(CCC#N)C(=O)CCl)ccc31)c1nnc(C)n1-2
[1]
  DC50: 3600 nM
[2]
  Emax: 60%

## Cc1sc2c(c1C)C(c1ccc(Cl)cc1)=N[C@@H](CC(=O)NCCCCOc1ccc(Oc3ccc(N(Cc4ccccc4)C(=O)CCl)cc3)cc1)c1nnc(C)n1-2
[5]
  Activity: 30%

## COc1cc(CN(CCCCNC(=O)COc2cccc3c2C(=O)N(C2CCC(=O)NC2=O)C3=O)C(=O)C[C@@H]2N=C(c3ccc(Cl)cc3)c3c(sc(C)c3C)-n3c(C)nnc32)c([N+](=O)[O-])cc1OC (stereo partly specified)
[6]
  pIC50: 5.12
[7]
  GI50: 400 nM
NAMALVA
  GI50: 340 nM

## Cc1sc2c(c1C)C(c1ccc(Cl)cc1)=N[C@@H](CC(=O)NCCOCCOCCN1CCOc3cc(N(CCC#N)C(=O)CCl)ccc31)c1nnc(C)n1-2
[1]
  DC50: 1100 nM
[2]
  Emax: 85%

## CCS(=O)(=O)Nc1ccc(Oc2ccc(F)cc2F)c(-c2cn(C)c(=O)c3[nH]ccc23)c1 [MIVEBRESIB]
BXPC-3
  pIC50: 5.91

## Cc1c(C(=O)NCCCCCNc2cccc3c2C(=O)N(C2CCC(=O)NC2=O)C3=O)sc2c1C(c1ccc(Cl)cc1)=N[C@@H](CC(=O)OC(C)(C)C)c1nnc(C)n1-2 (stereo partly specified)
[1]
  DC50: 5 nM

## COc1cc(/N=N/c2cccc3c2CN(C2CCC(=O)NC2=O)C3=O)cc(OC)c1OCC(=O)NCCCCNC(=O)C[C@@H]1N=C(c2ccc(Cl)cc2)c2c(sc(C)c2C)-n2c(C)nnc21 (stereo partly specified)
RS4-11 [8]
  pEC50: 7.05
RS4-11 [9]
  pEC50: 6.21

## Cc1sc2c(c1C)C(c1ccc(Cl)cc1)=N[C@@H](CC(=O)OC(C)(C)C)c1nnc(C)n1-2
SUD4
  GC50: 3120 nM

## COC(=O)C[C@H]1[C@]2(C)C3=C(C)[C@H](c4ccoc4-c4ccc(C(=O)NCCCNC(=O)C[C@@H]5N=C(c6ccc(Cl)cc6)c6c(sc(C)c6C)-n6c(C)nnc65)cc4)C[C@H]3O[C@@H]2[C@@H]2OC(=O)[C@]3(C)C=CC(=O)[C@@]1(C)[C@@H]23
[10]
  pIC50: 6.62

## Cc1ncsc1-c1ccc([C@H](C)NC(=O)[C@@H]2C[C@@H](O)CN2C(=O)[C@@H](NC(=O)COCCCOCCNC(=O)C[C@@H]2N=C(c3ccc(Cl)cc3)c3c(sc(C)c3C)-n3c(C)nnc32)C(C)(C)C)cc1
[11]
  DC50: < 5 nM
[12]
  DC50: < 5 nM
[13]
  DC50: < 5 nM
[14]
  pIC50: > 9.00
EOL1
  pIC50: 8.82
HL-60
  pIC50: 8.82
Caspase-3/Caspase-7
  EC50: 90 nM

## CCn1nc(C2CC2)cc1Nc1nc(C(=O)NCCCOCCOCCOCCCNc2cccc3c2C(=O)N(C2CCC(=O)NC2=O)C3=O)nc2[nH]c3cc(-c4c(C)noc4C)c(OC)cc3c12 (stereo unspecified)
MDA-MB-468 [15]
  pIC50: > 8.00
MDA-MB-468 [16]
  inhibition in vivo at 5 mg/kg: 85%
[6]
  pIC50: 7.66
[17]
  Emax: 93%
[7]
  GI50: 400 nM
NAMALVA
  GI50: 340 nM
[18]
  DC50: 5 nM
[19]
  DC50: 230 nM
[20]
  Emax: 63%
MV4-11 [21]
  pIC50: 5.91
MV4-11 [22]
  pIC50: 8.22

## Cc1ncsc1-c1ccc(CNC(=O)[C@@H]2C[C@@H](O)CN2C(=O)[C@@H](NC(=O)COCC(C)(COCCOCCOCCNC(=O)C[C@@H]2N=C(c3ccc(Cl)cc3)c3c(sc(C)c3C)-n3c(C)nnc32)COCCOCCOCCNC(=O)C[C@@H]2N=C(c3ccc(Cl)cc3)c3c(sc(C)c3C)-n3c(C)nnc32)C(C)(C)C)cc1
Caspase-3/Caspase-7
  EC50: 2 nM

## Cc1sc2c(c1C)C(c1ccc(Cl)cc1)=N[C@@H](CC(=O)NCCOCCOCCOCCOCCN1CCOc3cc(N(CCC#N)C(=O)CCl)ccc31)c1nnc(C)n1-2
[1]
  DC50: 1600 nM
[2]
  Emax: 80%

## CCS(=O)(=O)Cc1cc2c(cc1C(=O)NCCCCCCCCCCC(=O)N[C@H](C(=O)N1C[C@@H](O)C[C@H]1C(=O)NCc1ccc(-c3scnc3C)cc1)C(C)(C)C)N(c1ncc(F)cc1F)Cc1c[nH]c3c(=O)n(C)cc-2c13
[23]
  Emax: > 99%
[24]
  DC50: 0.03 nM
EOL1
  pIC50: 10.70
HL-60
  pIC50: 10.52

## Cc1sc2c(c1C)C(c1ccc(Cl)cc1)=N[C@@H](CC(=O)NCCCCCNc1cccc3c1CN(C1CCC(=O)NC1=O)C3=O)c1nnc(C)n1-2 (stereo partly specified)
[18]
  DC50: < 0.5 nM
MM1.S
  pIC50: 8.17
MV4-11 [25]
  pIC50: 9.05
MDA-MB-468 [26]
  pIC50: 6.90

## COc1cc(/N=N\c2cccc3c2CN(C2CCC(=O)NC2=O)C3=O)cc(OC)c1OCC(=O)NCCCCNC(=O)C[C@@H]1N=C(c2ccc(Cl)cc2)c2c(sc(C)c2C)-n2c(C)nnc21 (stereo partly specified)
[27]
  half-life: 8.8 h

## Cc1ncsc1-c1ccc(CNC(=O)[C@@H]2[C@@H](F)[C@@H](O)CN2C(=O)[C@@H](NC(=O)COCCOCCOCCNC(=O)C[C@@H]2N=C(c3ccc(Cl)cc3)c3c(sc(C)c3C)-n3c(C)nnc32)C(C)(C)C)cc1
[28]
  DC50: 1 nM

## Cc1sc2c(c1C)C(c1ccc(Cl)cc1)=N[C@@H](CC(=O)Nc1ccc(O)cc1)c1nnc(C)n1-2 [BIRABRESIB]
CWR22R
  inhibition in vivo at 30 mg/kg: 38%
